Experimental data from US8323925B2, “Aβ-binding protein and its peptide derivatives and uses thereof” (priority 2005, dated 2012).
No end group written: not given here. His‑tag = His-Tag conjugated at the N-terminus

B1: PK-4: Recombinant 170 amino acid polypeptide (21 kDa), sequence 1171-1314 and 1369-1380 of human pericentriolar material protein-1, PCM-1 (protein)
chain: SGKTEYMAFPKPFESSSSIGAEKPRNKKLPEEEVESSRTPWLYEQEGEVEKPFIKTGFSVSVEKSTSSNRKNQLDTNGRRRQFDEESLESFSSMPDPVDPTTVTKTFKTRKASAQASLASKDKTPKSKSKKRNSTQLKSRVKNITHARRILQQSNRNACNEAPETGSDFSMFEA

Columns and labels:
[1] = Stability in serum containing medium; type: in vitro ADME; conditions: for stability in serum containing medium: up to 48 hrs
Description: (§1) All peptides P4, P5 and P4-5 are stable in serum containing medium for up to 48 hrs and also in rat blood plasma (FIG. 7). P4 peptide was incubated in culture medium containing 10% fetal calf serum for various time periods at 37° C. and the stability of p4 was tested by Western blot analysis using p4-specific antibody. No loss of P4 was detected over a 24 hour period.

CD-1 mice = experiment: Toxicity in vivo; parameters: species or system mouse; conditions: up to 20 mg/kg body weight
[2] = Stability in rat blood plasma; type: in vitro ADME
Description: as §1

[3] = type: in vitro ADME
Text: (§2) These fusion proteins can be used not only to specifically deliver ABPs to the brain but also inside brain cells. This is particularly important since intracellular Aβ is believed to play a major role in synaptic dysfunction and neurodegeneration well before the accumulation of insoluble Aβ in senile plaques^6,7. Such pseudo vaccines would be administered, for example, subcutaneously, and further ingredients beyond a pharmacologically acceptable carrier would not be necessary. […] Recombinant Aβ binding peptide P4-5 (rABP, His-tag-[…]) was conjugated to BBB-permeable single-domain antibody FC5 (FIG. 8A). The FC5 conjugated peptide (FC5/ABP) bound AB1-42 equally well as the synthetic (sABP) or non-conjugated peptide (rABP) (FIG. 8B).

primary cortical neurons = experiment: Toxicity in vitro against primary cortical neurons; type: cell-based; conditions: data not shown
neuroblastoma cells = experiment: Toxicity in vitro against cultured neuroblastoma cells; type: cell-based; conditions: data not shown
Description: Human neuroblastoma cells, SH-SY5Y were treated with 15 μM Aβ in the presense or absence of Aβ binding peptide p4-5 in serum-free medium for 48 hrs and cell death was assessed by Hoechst stain.

AB1-42 [4] = target: T1, AB1-42 (Homo sapiens, UniProt P05067); experiment: Aβ binding of FC5-conjugated peptide
T1 sequence (P05067 672-713 limits assumed): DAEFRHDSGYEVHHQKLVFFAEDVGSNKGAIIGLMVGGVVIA
Text: as §2

AB1-42 [5] = target: T1, AB1-42; experiment: Biacore analysis; type: binding; conditions: Biacore (FIG. 1C)
Description: (§3) Aβ-binding of recombinant proteins PK-4 and PK-3 with N-terminus His-tag was determined by dot-blot assay using His-Tag antibody (A) or PK-4-specific antibody (B), and by Biacore analysis (C). β-binding PK-4 is a […] amino acid-long polypeptide that corresponds to sequence 1171-1314, and 1369-1380, of the human pericentriolar material protein-1, PCM-1.

Aβ40-1 = experiment: Aβ-binding dot-blot assay, reverse peptide; conditions: dot-blot (FIG. 1B)
Description: as §3

Aβ42-1 = experiment: Aβ-binding dot-blot assay, reverse peptide; conditions: dot-blot (FIG. 1B)
Description: as §3

Aβ1-40 = Aβ1-40 (Homo sapiens, UniProt P05067); experiment: Aβ-binding of recombinant proteins by dot-blot assay; conditions: PK-4-specific antibody (FIG. 1B)
Sequence of Aβ1-40 (P05067 672-711 limits assumed): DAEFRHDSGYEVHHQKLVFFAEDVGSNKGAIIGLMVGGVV
Description: as §3

Aβ1-42 = Aβ1-42 (Homo sapiens, UniProt P05067); experiment: as above
Sequence of Aβ1-42 (P05067 672-713 limits assumed): as the sequence (P05067 672-713 limits assumed) above
Description: as §3

rat brain PKC = experiment: PKC inhibitory activity in vitro; type: biochemical; conditions: rat brain PKC (FIG. 5)
Description: Various synthetic peptides derived from PK-4 (see FIG. 2) were tested for PKC inhibitory activity in vitro using rat brain PKC.

Molecule | stability in serum containing medium [1] | apparent toxicity in vivo (CD-1 mice) | stability in rat blood plasma [2] | crossing of BBB in vitro [3] | toxicity in vitro against primary cortical neurons (primary cortical neurons) | toxicity in vitro against cultured neuroblastoma cells (neuroblastoma cells) | other results
KDKTPKSKSKKRNSTQLKSRVKNITHARRILQQSNRNACN [Peptide P5] | stable | none of the peptides, p4, p5, or p4-5 showed any apparent toxicity | stable | – | – | – | –
His-tag-MPDPVDPTTVTKTFKTRKASAQASLASKDKTPKSKSKKRNSTQLKSRVKNI ({His‑tag}-MPDPVDPTTVTKTFKTRKASAQASLASKDKTPKSKSKKRNSTQLKSRVKNI) [rABP] | – | – | – | did not cross the BBB | – | – | –
KTFKTRKASAQASLASKDKTPKSKSKKRNSTQLKSRVKNI [Peptide P4-5] | stable | none of the peptides, p4, p5, or p4-5 showed any apparent toxicity | stable | – | no toxicity | no toxicity | –
FC5/ABP: Recombinant Aβ binding peptide P4-5 conjugated to BBB-permeable single-domain antibody FC5 ({His‑tag}-MPDPVDPTTVTKTFKTRKASAQASLASKDKTPKSKSKKRNSTQLKSRVKNI; also: conjugated to single-domain antibody FC5) | – | – | – | crossed the barrier | – | – | binding of AB1-42 relative to synthetic or non-conjugated peptide (AB1-42 [4]): equally well
FSSMPDPVDPTTVTKTFKTRKASAQASLASKDKTPKSKSK [Peptide P4] | stable | none of the peptides, p4, p5, or p4-5 showed any apparent toxicity | stable | – | no toxicity | no toxicity | loss of peptide in culture medium containing 10% fetal calf serum ([1]; 37° C., over a 24 hour period, Western blot): No loss
B1 | – | – | – | – | – | – | binding of AB1-42 (AB1-42 [5]): High affinity-binding; binding of reverse peptide Aβ40-1 (Aβ40-1): does not bind; binding of reverse peptide Aβ42-1 (Aβ42-1): does not bind; binding affinity for Aβ1-40 (Aβ1-40): high affinity (nM range); selective binding of Aβ1-42 (Aβ1-42; His-Tag antibody (FIG. 1A)): selectively binds Aβ1-42; binding affinity for Aβ1-42 (Aβ1-42; PK-4-specific antibody (FIG. 1B)): high affinity (nM range); PKC inhibitory activity (rat brain PKC): inhibits
